Consider one cell line from the supplement of paper PMC10307832.

Holding throughout (experiment): relative viability (nuclei count vs DMSO), 5 days (fraction); higher = more cells survive
Compound in the experiment “Irinotecan + Pemetrexed”: CCc1c2c(nc3ccc(OC(=O)N4CCC(N5CCCCC5)CC4)cc13)-c1cc3c(c(=O)n1C2)COC(=O)[C@]3(O)CC [Irinotecan] + Nc1nc2[nH]cc(CCc3ccc(C(=O)N[C@@H](CCC(=O)O)C(=O)O)cc3)c2c(=O)[nH]1 [Pemetrexed] (partner 0.2 µM)
A digest of the protocol:
(§1)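 After 5 days of treatment, lung cancer cells in 1536-well plates were fixed and stained in a single step (final 0.05% Triton X-100, 1% formaldehyde, 1 ug/ml Hoechst) and their nuclei counted on 4× images. Treatment had been applied by pin tool the day after seeding as one drug alone or as a fixed anchor-drug dose with five library-drug doses (not always all listed) in √10 steps. Relative viability is the nuclei count of treated wells divided by that of vehicle wells, and values are medians of duplicate plates.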

Compound in the experiment “RU-SKI 43 + Alpelisib”: CC[C@@H](C)CNCC(=O)N1CCC2=C([C@@H]1COC3=CC=CC(=C3)C)C=CS2 [RU-SKI 43] + Cc1nc(NC(=O)N2CCC[C@H]2C(N)=O)sc1-c1ccnc(C(C)(C)C(F)(F)F)c1 [Alpelisib] (partner 2 µM)
A digest of the protocol:
as §1

Compound in the experiment “MK-8033 + Navitoclax”: Cn1cc(-c2cnc3ccc4ccc(CS(=O)(=O)NCc5ccccn5)cc4c(=O)c3c2)cn1 [MK-8033] + CC1(C)CCC(c2ccc(Cl)cc2)=C(CN2CCN(c3ccc(C(=O)NS(=O)(=O)c4ccc(N[C@H](CCN5CCOCC5)CSc5ccccc5)c(S(=O)(=O)C(F)(F)F)c4)cc3)CC2)C1 [Navitoclax] (partner 0.5 µM)
In short, it runs like this: as §1

Compound in the experiment “Irinotecan + Crizotinib”: CCc1c2c(nc3ccc(OC(=O)N4CCC(N5CCCCC5)CC4)cc13)-c1cc3c(c(=O)n1C2)COC(=O)[C@]3(O)CC [Irinotecan] + C[C@@H](Oc1cc(-c2cnn(C3CCNCC3)c2)cnc1N)c1c(Cl)ccc(F)c1Cl [Crizotinib] (partner 1 µM)
A digest of the protocol:
as §1

For UMC-11, the relative viability was found to be 0.46 with Irinotecan + Pemetrexed (first compound 0.6325 µM); 0.436 with Irinotecan + Pemetrexed (first compound 2 µM); 0.288 with Irinotecan + Pemetrexed (first compound 6.325 µM); 0.228 with Irinotecan + Pemetrexed (first compound 20 µM); 1.06 with RU-SKI 43 + Alpelisib (first compound 0.1 µM); 1.18 with RU-SKI 43 + Alpelisib (first compound 0.3162 µM). In addition, the relative viability was 1.16 in the experiment with RU-SKI 43 + Alpelisib (first compound 1 µM); 1.04 with RU-SKI 43 + Alpelisib (first compound 3.162 µM); 0.901 with RU-SKI 43 + Alpelisib (first compound 10 µM); 0.306 with MK-8033 + Navitoclax (first compound 0.02 µM); 0.265 with MK-8033 + Navitoclax (first compound 0.06325 µM); 0.287 with MK-8033 + Navitoclax (first compound 0.2 µM). The relative viability amounted to 0.28 in the experiment with MK-8033 + Navitoclax (first compound 0.6325 µM); 0.332 with MK-8033 + Navitoclax (first compound 2 µM); 0.296 in the experiment with Irinotecan + Crizotinib (first compound 0.6325 µM); 0.374 with Irinotecan + Crizotinib (first compound 2 µM); 0.326 with Irinotecan + Crizotinib (first compound 6.325 µM); 0.157 with Irinotecan + Crizotinib (first compound 20 µM).
